ChEMBL document CHEMBL1147462, “Exploring QSAR of melatonin receptor ligand benzofuran derivatives using E-state index” (Bioorg Med Chem Lett, 2004)

Tests used:
[1] = target: Melatonin receptor type 1A (Homo sapiens) (UniProt P48039); experiment: Binding affinity against Melatonin receptor type 1A
[2] = target: T1, Melatonin receptor (Homo sapiens) (UniProt P48039+P49286); experiment: Selectivity (pC2-PC1) was determined; type: protein assay
[3] = target: T2, Melatonin receptor type 1B (Homo sapiens) (UniProt P49286); experiment: Binding affinity against melatonin receptor type 1B
T2 sequence (whole entry): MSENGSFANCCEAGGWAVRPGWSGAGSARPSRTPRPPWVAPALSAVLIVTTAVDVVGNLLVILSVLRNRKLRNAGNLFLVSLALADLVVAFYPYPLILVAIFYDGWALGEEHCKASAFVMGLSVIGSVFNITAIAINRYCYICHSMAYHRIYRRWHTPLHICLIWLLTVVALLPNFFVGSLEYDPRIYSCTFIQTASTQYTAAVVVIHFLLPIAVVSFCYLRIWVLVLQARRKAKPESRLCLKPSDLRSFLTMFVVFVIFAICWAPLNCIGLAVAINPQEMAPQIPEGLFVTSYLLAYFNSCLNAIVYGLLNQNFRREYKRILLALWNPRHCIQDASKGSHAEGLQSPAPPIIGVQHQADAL

[4] = target: T1, Melatonin receptor (Homo sapiens); experiment: Binding affinity against melatonin (MT1) receptor (pC1); type: protein assay

Chain of Melatonin receptor type 1A (Homo sapiens) (P48039 whole entry): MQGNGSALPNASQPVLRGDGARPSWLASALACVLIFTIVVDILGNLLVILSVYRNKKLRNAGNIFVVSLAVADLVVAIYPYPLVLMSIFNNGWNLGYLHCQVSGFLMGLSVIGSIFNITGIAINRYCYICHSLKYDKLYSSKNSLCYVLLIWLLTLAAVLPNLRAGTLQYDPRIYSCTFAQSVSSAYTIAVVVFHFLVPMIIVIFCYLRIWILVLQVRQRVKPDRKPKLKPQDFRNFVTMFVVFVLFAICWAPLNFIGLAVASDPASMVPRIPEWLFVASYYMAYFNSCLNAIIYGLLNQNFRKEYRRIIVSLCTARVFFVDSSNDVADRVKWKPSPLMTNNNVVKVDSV
T1 sequence (P48039 whole entry, looked up, one chain of several): as the sequence (P48039 whole entry) above

| SMILES | pC1 [1] | Selectivity [2] | pC1 [3] | pC1 [4] |
| --- | --- | --- | --- | --- |
| COc1ccc2oc(Cc3ccccc3)c(CCNC(=O)CI)c2c1 | 2.06 | 1.32 | 3.39 | – |
| CCCC(=O)NCCc1c(Cc2ccccc2)oc2ccc(OC)cc12 | 2.48 | 1.22 | 3.7 | – |
| C=CCC(=O)NCCc1c(-c2ccccc2)oc2ccc(OC)cc12 | 5 | -0.301 | 4.7 | – |
| CCCCCOc1ccc2oc(Cc3ccccc3)c(CCNC(C)=O)c2c1 | 1.37 | 0.642 | 2.01 | – |
| CC(=O)NCCc1c(Cc2ccccc2)oc2ccc(O)cc12 | 0.245 | 0.852 | 1.1 | – |
| C=CC(=O)NCCc1c(Cc2cccc(OC)c2)oc2ccc(OC)cc12 | 1.26 | 1.3 | 2.56 | – |
| COc1ccc2oc(Cc3cc(C(F)(F)F)cc(C(F)(F)F)c3)c(CCNC(C)=O)c2c1 | 0.322 | 0.147 | 0.469 | – |
| C=CCC(=O)NCCc1c(Cc2ccccc2)oc2ccc(OC)cc12 | 2.46 | 1.77 | 4.22 | – |
| CCc1ccc2oc(Cc3ccccc3)c(CCNC(C)=O)c2c1 | 1.19 | 0.893 | 2.08 | – |
| CC(=O)NCCc1c(Cc2ccccc2)oc2ccccc12 | 0.81 | 1.17 | 1.98 | – |
| CCc1ccc2oc(Cc3cccc(OC)c3)c(CCNC(C)=O)c2c1 | 0.541 | 1.23 | 1.77 | – |
| COc1ccc2oc(-c3ccccc3)c(CCNC(=O)Cc3ccco3)c2c1 | 1.89 | -1.45 | 0.442 | – |
| COc1ccc2oc(Cc3ccccc3OC)c(CCNC(C)=O)c2c1 | 1.84 | 2.1 | 3.47 | – |
| COc1ccc2oc(CC3CCCCC3)c(CCNC(C)=O)c2c1 | 1.18 | 1.43 | 2.6 | – |
| COc1ccc2oc(Cc3cccc(Cl)c3)c(CCNC(C)=O)c2c1 | 2.14 | 1.51 | 3.66 | – |
| COc1ccc2oc(Cc3cccc(C(F)(F)F)c3)c(CCNC(C)=O)c2c1 | 1.1 | 1.83 | 2.93 | – |
| C/C=C/C(=O)NCCc1c(-c2ccccc2)oc2ccc(OC)cc12 | 3 | 0.682 | 3.68 | – |
| CNC(=O)NCCc1c(Cc2ccccc2)oc2ccc(OC)cc12 | 2.27 | 1.19 | 3.46 | – |
| COc1ccc2oc(-c3ccccc3)c(CCNC(C)=O)c2c1 | 5 | -0.301 | 4.7 | – |
| CNC(=O)NCCc1c(-c2ccccc2)oc2ccc(OC)cc12 | – | 0 | 4.4 | 4.4 |
| COc1ccc2oc(Cc3c(Cl)cccc3Cl)c(CCNC(C)=O)c2c1 | 1.07 | 0.82 | 1.89 | – |
| C=CC(=O)NCCc1c(-c2ccccc2)oc2ccc(OC)cc12 | 4.7 | 0.301 | 5 | – |
| COc1ccc2oc(CCCc3ccccc3)c(CCNC(C)=O)c2c1 | 1.5 | 1.32 | 2.82 | – |
| CCCCCCOc1ccc2oc(Cc3ccccc3)c(CCNC(C)=O)c2c1 | 2.09 | 0.407 | 2.49 | – |
| COc1ccc2oc(Cc3ccccc3)c(CCNC(=O)c3ccco3)c2c1 | 0.156 | 1.28 | 1.44 | – |
| COc1cccc(Cc2oc3ccc(OC)cc3c2CCNC(C)=O)c1 | – | 2.1 | 3.5 | – |
| COc1cccc(Cc2oc3ccccc3c2CCNC(C)=O)c1 | 0.64 | 1.09 | 1.73 | – |
| C=CC(=O)NCCc1c(Cc2ccccc2)oc2ccc(OC)cc12 | 1.27 | 1.89 | 3.16 | – |
| COc1ccc2oc(Cc3cccc(F)c3)c(CCNC(C)=O)c2c1 | 3.12 | 0.513 | 3.64 | – |
| COc1ccc(Cc2oc3ccc(OC)cc3c2CCNC(C)=O)cc1 | 1.62 | 1.68 | 3.3 | – |
